Data: patent US11311567B2, “Cytochrome P450 enzyme complexes and methods of treatment using the same” (Innovation Hammer LLC, priority 2004, dated 2022)

Key:
human CPR (hCPR) = experiment: NADPH-dependent reduction of cytochrome C by CPR in microsomes after treatment with substrates; type: biochemical; details: microsomes quantified against CPR and Cc; Cc oxidase activity inhibited by potassium cyanide
Source text: The following example illustrates an application of human P450 compositions according to the present invention. Procedures followed previously described methods, e.g., U.S. Pat. No. 6,020,288; M. Markwell, et al., Methods of Enzymology 72:296-303 (1981); C. A. Mihaliak, et al., Methods in plant biochemistry 19:261-279 (1993); R. Donaldson, et al., Arch. Biochem. Biophys. 152:199-215 (1972); and M. Persans, et al., Plant Physiol. 109:1483-1490 (1995)).
Methods. CPR substrates have been assayed on various tissues (e.g., U.S. Pat. No. 6,020,288); therefore, response to human CPR (hCPR) was examined under controlled conditions on live index organisms. The direct effects of substrates on hCPR were measured by preparation of microsomes for quantification against CPR and Cc. Controls included equal concentrations of each individual treatment or substrate in surfactant and water. Untreated controls were maintained under identical conditions of culture. Oxidase activity of Cc was inhibited by potassium cyanide. The reaction was initiated by addition of Cc wherein NADPH-dependent reduction of Cc was monitored for increases in absorbance.

[1] = basis for selecting preferred oxidants; cited from earlier work

For `Cc1cc2nc3c(=O)[nH]c(=O)nc-3n(C[C@H](O)[C@H](O)[C@H](O)COP(=O)(O)O)c2cc1C` [FMN, flavin mononucleotide], the “induction relative to components tested” value (human CPR (hCPR)) is listed as “over 4.5 times” and the “one-electron reduction potential (E0)” value [1] is listed as −313 mV.

In the case of `O=C(O)CO` [glycolate], the “one-electron reduction potential (E0)” value [1] is listed as −290 mV.

For nitrobenzoate, the “one-electron reduction potential (E0)” value [1] is listed as −396 mV.
